Laboratory results as given in paper PMC11277489, “Novel Piperazine Derivatives of Vindoline as Anticancer Agents” (International Journal of Molecular Sciences, 2024).

Key:
SiHa cell line = tested on: SiHa cell line; set-up: method as in PMID 32102414; conditions: cited from earlier work
[1] = tested on: 60 human tumor cell lines (NCI60); assay: NCI60 one-dose screen (10 μM), whole panel; assay type: cell-based; conditions: 10 μM one-dose, NCI60

| SMILES | IC50 (SiHa cell line) | antiproliferative effect (in words) [1] |
| --- | --- | --- |
| CC[C@]12C=CCN3CC[C@@]4(c5ccc(OC)cc5N(C)[C@H]4[C@@](O)(C(=O)OC)[C@@H]1OC(=O)CCCN1CCN(CCCC(=O)O[C@@H]4[C@]5(CC)C=CCN6CC[C@@]7(c8ccc(OC)cc8N(C)[C@H]7[C@@]4(O)C(=O)OC)[C@@H]65)CC1)[C@@H]32 [Compound 4] | 2850 nM |  |
| CCC12C=CCN3CCC4(c5cc(N)c(OC)cc5N(C)C4C(O)(C(=O)OC)C1OC(C)=O)C32 (centres unmarked) [Compound 11, 10-aminovindoline] |  | a notable antiproliferative effect was not shown |
